Legend:
[1] = Superoxide scavenging activity (NBT), McCord and Fridovich method; conditions: light induced superoxide generation by riboflavin, reduction of NBT
Method: Antioxidant (superoxide scavenging) activity of these compounds are determined by conventional methods like McCord and Fridovich method, which is based on light induced superoxide generation by riboflavin and corresponding reduction of NBT. The assay mixture contains phosphate buffer, EDTA, NBT and riboflavin. Different concentrations of these compounds were assessed and their optical densities measured before and after illumination. The percentage value of inhibition of superoxide production by the compounds of this invention was evaluated and compared with the absorbance value of control and experimental data.

| Superoxide scavenging activity (NBT) IC50 [1] [µg/mL] | melting point [°C] | SMILES |
| --- | --- | --- |
| 9.2 | – | O=C(/C=C/c1ccc(O)c(O)c1)Oc1cc(O)cc(/C=C/c2ccc(O)cc2)c1 [Compound 6, 5-[(1E)-2-(4-hydroxyphenyl)vinyl]-3-hydroxyphenyl(2E)-3(3,4-dihydroxyphenyl) prop-2-enoate] |
| 10.0 | – | O=C(/C=C/c1cc(O)c(O)c(O)c1)Oc1cc(O)cc(/C=C/c2ccc(O)cc2)c1 [Compound 7, 5-[(1E)-2-(4-hydroxyphenyl)vinyl]-3-hydroxyphenyl(2E)3(3,4,5-trihydroxyphenyl) prop-2-enoate] |
| 34.1 | 92 to 94 | CN(C)CCOc1cc(O)cc(/C=C/c2ccc(O)cc2)c1 [Compound 8, 3-[(1E)-2-(4-hydroxyphenyl)vinyl]-5-[2-(dimethylamino)ethoxy] phenol] |
| 29.3 | – | Cl.NCC(=O)Oc1cc(O)cc(/C=C/c2ccc(O)cc2)c1 [Compound 9, 5-[(1E)-2-(4-hydroxyphenyl)vinyl]-3-hydroxyphenyl 2-aminoacetate hydrochloride] |

Continued, molecule first:

| SMILES | Superoxide scavenging activity (NBT) IC50 [1] [µg/mL] | melting point [°C] |
| --- | --- | --- |
| Oc1ccc(/C=C/c2cc(O)c(O)c(O)c2)cc1O [Compound 1, 5-[(1E)-2-(3,4-dihydroxyphenyl)vinyl]-benzene1,2,3-triol] | 3.0 | 150 to 152 |
| Oc1cc(/C=C/c2cc(O)c(O)c(Br)c2)cc(O)c1O [Compound 2, 5-[(1E)-2-(5-Bromo-3,4-dihydroxyphenyl)vinyl]-benzene1,2,3-triol] | 8.1 | 180 to 182 |
| Oc1cc(/C=C/c2cc(O)c(O)c(O)c2)cc(O)c1O [Compound 3, 5-[(1E)-2-(3,4,5-trihydroxyphenyl)vinyl]-benzene1,2,3-triol] | 0.9 | – |
| O=C(Oc1cc(O)cc(/C=C/c2ccc(O)cc2)c1)c1cc(O)c(O)c(O)c1 [Compound 4, 5-[(1E)2-(4-hydroxyphenyl)vinyl]-3-hydroxyphenyl 3,4,5-trihydroxybenzoate] | 16.0 | – |
| O=C(Oc1cc(/C=C/c2ccc(O)cc2)cc(OC(=O)c2cc(O)c(O)c(O)c2)c1)c1cc(O)c(O)c(O)c1 [Compound 5, 3-[(1E)-2-(4-hydroxyphenyl)vinyl]-5-(3,4,5trihydroxyphenylcarbonyloxy)-phenyl 3,4,5-trihydroxybenzoate] | 17.5 | – |
